Where two headings read alike, the source gives them in different places.
Legend:
Type in all cases: cell-based
enterovirus 71 = assay: Plaque reduction assay, enterovirus 71
coxsackievirus A9 = assay: Plaque reduction assay, coxsackievirus A9
coxsackievirus A24 = assay: Plaque reduction assay, coxsackievirus A24
[1] = plaque reduction assay, vero cells, 35° C., 96 hours

O=C1N(CCCCCCOc2ccc(C(F)(F)F)cc2)CCN1c1ccncc1 [Compound 1, 1-(4-pyridyl)-3-(6-[4-(trifluoromethyl)phenoxy]hexyl)-2-imidazolidinone]
showed antiviral activity: antiviral activity against enteroviruses, in particular enterovirus 71 (enterovirus 71; [1]) | antiviral activity against enteroviruses, in particular coxsackievirus A9 (coxsackievirus A9; [1]) | antiviral activity against enteroviruses, in particular coxsackievirus A24 (coxsackievirus A24; [1])

O=C1N(CCCCCCCOc2ccc(Cl)cc2)CCN1c1ccncc1 [Compound 2, 1-[7-(4-chlorophenoxy)heptyl]-3-(4-pyridyl)-2-imidazolidinone]
showed antiviral activity: antiviral activity against enteroviruses, in particular enterovirus 71 (enterovirus 71; [1]) | antiviral activity against enteroviruses, in particular coxsackievirus A9 (coxsackievirus A9; [1]) | antiviral activity against enteroviruses, in particular coxsackievirus A24 (coxsackievirus A24; [1])

O=C1N(CCCCCCOc2ccc(Br)cc2)CCN1c1ccncc1 [Compound 17, 1-[6-(4-bromophenoxy)hexyl]-3-(4-pyridyl)-2-imidazolidinone]
showed antiviral activity: antiviral activity against enteroviruses, in particular enterovirus 71 (enterovirus 71; [1]) | antiviral activity against enteroviruses, in particular coxsackievirus A9 (coxsackievirus A9; [1]) | antiviral activity against enteroviruses, in particular coxsackievirus A24 (coxsackievirus A24; [1])

CC1CN(CCCCCCOc2ccc(Cl)cc2)C(=O)N1c1ccncc1 (stereo not drawn) [Compound 21, 1-[6-(4-chlorophenoxy)hexyl]-4-methyl-3-(4-pyridyl)-2-imidazolidinone]
showed antiviral activity: antiviral activity against enteroviruses, in particular enterovirus 71 (enterovirus 71; [1]) | antiviral activity against enteroviruses, in particular coxsackievirus A9 (coxsackievirus A9; [1]) | antiviral activity against enteroviruses, in particular coxsackievirus A24 (coxsackievirus A24; [1])

O=C1N(CCCCCCOc2ccc(Cl)cc2)CCN1c1ccncc1 [Compound 24, 1-[6-(4-chlorophenoxy)hexyl]-3-(4-pyridyl)-2-imidazolidinone]
showed antiviral activity: antiviral activity against enteroviruses, in particular enterovirus 71 (enterovirus 71; [1]) | antiviral activity against enteroviruses, in particular coxsackievirus A9 (coxsackievirus A9; [1]) | antiviral activity against enteroviruses, in particular coxsackievirus A24 (coxsackievirus A24; [1])

O=C1N(CCCCCOc2ccc(Cl)cc2)CCN1c1ccncc1 [Compound 28, 1-[5-(4-chlorophenoxy)pentyl]-3-(4-pyridyl)-2-imidazolidinone]
showed antiviral activity: antiviral activity against enteroviruses, in particular enterovirus 71 (enterovirus 71; [1]) | antiviral activity against enteroviruses, in particular coxsackievirus A9 (coxsackievirus A9; [1]) | antiviral activity against enteroviruses, in particular coxsackievirus A24 (coxsackievirus A24; [1])

O=C1N(CCCCCCOc2ccc(Br)cc2)CCN1c1cccnc1 [Compound 33, 1-[6-(4-bromophenoxy)hexyl]-3-(3-pyridyl)-2-imidazolidinone]
showed antiviral activity: antiviral activity against enteroviruses, in particular enterovirus 71 (enterovirus 71; [1]) | antiviral activity against enteroviruses, in particular coxsackievirus A9 (coxsackievirus A9; [1]) | antiviral activity against enteroviruses, in particular coxsackievirus A24 (coxsackievirus A24; [1])

O=C1N(CCCCOCCOc2ccc(Br)cc2)CCN1c1ccncc1 [Compound 34, 1-4-[2-(4-bromophenoxy)ethoxy]butyl-3-(4-pyridyl)-2-imidazolidinone]
showed antiviral activity: antiviral activity against enteroviruses, in particular enterovirus 71 (enterovirus 71; [1]) | antiviral activity against enteroviruses, in particular coxsackievirus A9 (coxsackievirus A9; [1]) | antiviral activity against enteroviruses, in particular coxsackievirus A24 (coxsackievirus A24; [1])

O=C1N(CCCCCCCOc2ccc(Cl)cc2)CCN1c1cccnc1 [Compound 39, 1-[7-(4-chlorophenoxy)heptyl]-3-(3-pyridyl)-2-imidazolidinone]
showed antiviral activity: antiviral activity against enteroviruses, in particular enterovirus 71 (enterovirus 71; [1]) | antiviral activity against enteroviruses, in particular coxsackievirus A9 (coxsackievirus A9; [1]) | antiviral activity against enteroviruses, in particular coxsackievirus A24 (coxsackievirus A24; [1])

O=C1N(CCCCCCOc2ccc(C(F)(F)F)cc2)CCN1c1cccnc1 [Compound 42, 1-(3-pyridyl)-3-(6-[4-(trifluoromethyl)phenoxy]hexyl)-2-imidazolidinone]
showed antiviral activity: antiviral activity against enteroviruses, in particular enterovirus 71 (enterovirus 71; [1]) | antiviral activity against enteroviruses, in particular coxsackievirus A9 (coxsackievirus A9; [1]) | antiviral activity against enteroviruses, in particular coxsackievirus A24 (coxsackievirus A24; [1])

O=C1N(CCCCCOCCOc2ccc(Br)cc2)CCN1c1ccncc1 [Compound 47, 1-(5-[2-(4-bromophenoxy)ethoxy]pentyl)-3-(4-pyridyl)-2-imidazolidinone]
showed antiviral activity: antiviral activity against enteroviruses, in particular enterovirus 71 (enterovirus 71; [1]) | antiviral activity against enteroviruses, in particular coxsackievirus A9 (coxsackievirus A9; [1]) | antiviral activity against enteroviruses, in particular coxsackievirus A24 (coxsackievirus A24; [1])

O=C1N(CCCCCCCOc2ccc(Br)cc2)CCN1c1ccncc1 [Compound 50, 1-[7-(4-bromophenoxy)heptyl]-3-(4-pyridyl)-2-imidazolidinone]
showed antiviral activity: antiviral activity against enteroviruses, in particular enterovirus 71 (enterovirus 71; [1]) | antiviral activity against enteroviruses, in particular coxsackievirus A9 (coxsackievirus A9; [1]) | antiviral activity against enteroviruses, in particular coxsackievirus A24 (coxsackievirus A24; [1])

O=C1N(CCCCCOc2ccc(Br)cc2)CCN1c1ccncc1 [Compound 52, 1-[5-(4-bromophenoxy)pentyl]-3-(4-pyridyl)-2-imidazolidinone]
showed antiviral activity: antiviral activity against enteroviruses, in particular enterovirus 71 (enterovirus 71; [1]) | antiviral activity against enteroviruses, in particular coxsackievirus A9 (coxsackievirus A9; [1]) | antiviral activity against enteroviruses, in particular coxsackievirus A24 (coxsackievirus A24; [1])

O=C1N(CCCCCCOc2ccc(I)cc2)CCN1c1ccncc1 [Compound 61, 1-[6-(4-iodophenoxy)hexyl]-3-(4-pyridyl)-2-imidazolidinone]
showed antiviral activity: antiviral activity against enteroviruses, in particular enterovirus 71 (enterovirus 71; [1]) | antiviral activity against enteroviruses, in particular coxsackievirus A9 (coxsackievirus A9; [1]) | antiviral activity against enteroviruses, in particular coxsackievirus A24 (coxsackievirus A24; [1])

O=C1N(CCCCCOc2ccc(-c3ccc(Cl)cc3)cc2)CCN1c1ccncc1 [Compound 73, 1-[6-(4-(4′-chloro)biphenyl-4-yloxy)pentyl]-3-pyridin-4-yl-imidazolidin-2-one]
showed antiviral activity: antiviral activity against enteroviruses, in particular enterovirus 71 (enterovirus 71) | antiviral activity against enteroviruses, in particular coxsackievirus A9 (coxsackievirus A9) | antiviral activity against enteroviruses, in particular coxsackievirus A24 (coxsackievirus A24)

COc1ccc(-c2ccc(OCCCCCN3CCN(c4ccncc4)C3=O)cc2)cc1 [Compound 74, 1-[5-(4′-methoxy-biphenyl-4-yloxy)pentyl]-3-pyridin-4-yl-imidazolidin-2-one]
showed antiviral activity: antiviral activity against enteroviruses, in particular enterovirus 71 (enterovirus 71; [1]) | antiviral activity against enteroviruses, in particular coxsackievirus A9 (coxsackievirus A9; [1]) | antiviral activity against enteroviruses, in particular coxsackievirus A24 (coxsackievirus A24; [1])

O=C1N(CCCCCOc2ccc(-c3ccc([N+](=O)[O-])cc3)cc2)CCN1c1ccncc1 [Compound 76, 1-[5-(4′-nitro-biphenyl-4-yloxy)pentyl]-3-pyridin-4-yl-imidazolidin-2-one]
showed antiviral activity: antiviral activity against enteroviruses, in particular enterovirus 71 (enterovirus 71; [1]) | antiviral activity against enteroviruses, in particular coxsackievirus A9 (coxsackievirus A9; [1]) | antiviral activity against enteroviruses, in particular coxsackievirus A24 (coxsackievirus A24; [1])
